{"source": "patent US4024280A", "about": "“Abietanilides, their production and use” (Nippon Shinyaku Co., Ltd., priority 1974, dated 1977)", "tested_on": "cholesterol concentration in the blood", "experiment": "Blood cholesterol reduction in rats fed a cholesterol/sodium cholate diet", "assay_type": "in vivo", "settings": "male rats, diet with 1% cholesterol and 0.25% sodium cholate for 3 days, control group = 0, normal group = 100", "method": "A completely synthetic diet containing 1% of cholesterol, 0.25% of sodium cholate and 0.003%, 0.01%, 0.03% and 0.1% of the test compound is given to a group of 6 male rats having a body weight of about 50 g consecutively for 3 days, and the rats are fasted overnight. Then, the rats are decapitated and their blood collected to determine the cholesterol concentration in the blood. The concentration of cholesterol in the blood is measured with Technicon Autoanalyzer (Technicon Laboratory: Method File N-24a).\nEach value shown in the Table is a relative value determined based on the supposition that the value of the control group (the cholesterol-administered group) is 0 and the value of the normal group (the non-cholesterol-administered group) is 100.", "data": [{"smiles": "CC(C)C1CCC2=C(CCC3C(C)(C(=O)Nc4ccccc4)CCCC23C)C1", "note": "(stereo not shown) [Δ^8 -Dihydroabietanilide]", "values": [{"measurement": "% Inhibition", "setting": "dose in diet 0.003%", "result": 18, "unit": "%"}, {"measurement": "% Inhibition", "setting": "dose in diet 0.01%", "result": 22, "unit": "%"}, {"measurement": "% Inhibition", "setting": "dose in diet 0.03%, * significant at 1% level", "result": 56, "unit": "%"}, {"measurement": "% Inhibition", "setting": "dose in diet 0.1%, * significant at 1% level", "result": 93, "unit": "%"}]}]}
